Assay results taken from US20090220421A1, “METHOD FOR SCREENING MTP-INHIBITING COMPOUNDS” (priority 2005, published 2009).

Assays:
[1] = molecular target: T1, microsomal triglyceride transfer protein (MTP) (Mesocricetus auratus, UniProt P55158); assay: Test B: qualitative analysis of the inhibition of MTP activity in vitro (labelled triglyceride transfer, SPA); assay type: biochemical, golden hamster; conditions: [3H]-triolein transfer from liposomes to LDL-biot, 18-24 hours at 37° C.; read-out: IC50 (concentration that allows a 50% inhibition of MTP)
T1 construct: The supernatant comprising the soluble MTP is dialysed; from tissue; host or cells: golden hamster liver microsomes, deoxycholate-solubilised supernatant
T1 sequence (P55158 19-895): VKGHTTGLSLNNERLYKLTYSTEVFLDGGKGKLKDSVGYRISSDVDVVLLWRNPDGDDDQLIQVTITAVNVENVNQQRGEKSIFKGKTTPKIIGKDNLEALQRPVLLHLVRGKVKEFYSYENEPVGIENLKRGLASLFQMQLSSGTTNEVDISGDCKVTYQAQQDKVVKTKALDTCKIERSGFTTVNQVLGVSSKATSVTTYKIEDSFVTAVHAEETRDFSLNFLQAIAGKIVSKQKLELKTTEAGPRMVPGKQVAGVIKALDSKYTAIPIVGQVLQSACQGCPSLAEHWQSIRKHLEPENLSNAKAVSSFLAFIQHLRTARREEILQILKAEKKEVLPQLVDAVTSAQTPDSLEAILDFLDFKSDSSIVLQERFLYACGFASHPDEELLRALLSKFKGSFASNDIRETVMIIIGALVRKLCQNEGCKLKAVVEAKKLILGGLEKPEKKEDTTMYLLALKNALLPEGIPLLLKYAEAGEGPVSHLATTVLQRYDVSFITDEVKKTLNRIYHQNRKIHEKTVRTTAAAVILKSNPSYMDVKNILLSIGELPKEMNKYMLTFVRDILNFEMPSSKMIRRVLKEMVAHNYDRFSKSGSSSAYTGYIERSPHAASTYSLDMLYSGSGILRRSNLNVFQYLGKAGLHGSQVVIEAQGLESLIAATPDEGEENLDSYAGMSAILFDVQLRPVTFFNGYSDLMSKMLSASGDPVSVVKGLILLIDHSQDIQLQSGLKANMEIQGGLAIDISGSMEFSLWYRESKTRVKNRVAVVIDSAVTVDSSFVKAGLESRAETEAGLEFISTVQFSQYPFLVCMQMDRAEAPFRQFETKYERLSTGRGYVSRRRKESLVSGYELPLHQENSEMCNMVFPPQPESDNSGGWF
Description: Qualitative Analysis of the Inhibition of Mtp Activity In Vitro
The inhibition of the activity of microsomal triglyceride transfer protein (MTP) was tested by using the following operating protocol.
The inhibition of MTP activity with a compound may be quantified by observing the inhibition of the transfer of a labelled triglyceride, from a donor particle to an acceptor particle, in the presence of MTP. The procedure for the preparation of MTP is based on the method by Wetterau and Zilversmit (Biochem. Biophys. Acta (1986) 875, 610). A few grams of golden hamster liver are taken and then rinsed several times in a 250 mM sucrose solution at 0° C. All the following steps proceed at +4° C. […]
The reaction mixture is prepared in untreated ½ well white plates (Corning Costar) by addition, in the following order, of: 5 μl of HEPES 50 mM, NaCl 150 mM, BSA 0.1% (w/v), 0.05% sodium azide (w/v), pH 7.4 buffer; 5 μl of liposomes; 5 μl of LDL-biot; 5 μl of test products in DMSO 5 μl of MTP. After incubation for 18-24 hours at 37° C., the reaction is stopped by adding 100 μl of Amersham SPA (Scintillation Proximity Assay) beads coupled to streptavidin, and the radioactivity is counted using a Top Count (Packard) machine at least one hour later. The inhibition of the transfer of the triglycerides with a compound is reflected by a reduction in the transferred radioactivity. […]

[2] = tested on: apoB secretion in HepG2 cells; assay: Test C: inhibition of apoB secretion in the HepG2 human cell line (sandwich ELISA); assay type: cell-based; conditions: 24 hours incubation, read-out: IC50 (concentration that produces a 50% inhibition of apoB secretion in the HepG2 cells)
Description: Qualitative Analysis of the Secretion of apoB in the HepG2 Human Cell Line
The activity of a compound may be evaluated by measuring the inhibition of apoB secretion in HepG2 cells.
The HepG2 cells (ECACC-No. 85011430) are used as model in the study of the in vitro hepatic secretion of lipoproteins, as described by Dixon J. and Ginsberg H. (J. Lipid. Res., (1993), 34, 167-179).
The HepG2 cells are cultured in Dulbecco's modified Eagle's medium comprising 10% foetal calf serum (DMEM and FBS-Gibco) in 96-well plates under an atmosphere of 5% carbon dioxide for 24 hours (about 70% confluence).
The test compounds are dissolved at a concentration of 2 or 10 mM in dimethyl sulfoxide (DMSO). Serial dilutions (1:3.16) are made in DMSO and are added (1:200—Robot Multimek Beckman) to the growth medium (200 μl) and then finally incubated for 24 hours in the various wells containing the HepG2 cells.
The 24-hour culture supernatant diluted to 1:5 (phosphate-buffered saline: PBS comprising 1% bovine serum albumin) is tested according to a sandwich-ELISA method specific for human apoB.
The results, presented in Table II below for compounds 1 and 2, are expressed in terms of IC50, i.e. the concentration that produces a 50% inhibition of apoB secretion in the HepG2 cells.

[3] = tested on: secretion of apoB by HepG2 cells; assay: Test Avitro: kinetics (reversibility) of inhibition of secretion of apoB by HepG2 cells; assay type: cell-based, human
Description: Analyse of the Kinetics (Reversibility) of Inhibition of Secretion of apoB by HepG2 Cells:
HepG2 cells are placed in contact with the products as described in the preceding paragraph and the secretion of ApoB is measured after 6 and 24 hours. The comparison is made at equipotent dose for the inhibition of secretion of apoB after 24 hours.
Next, the products are removed from the culture medium (during changes of the medium at 0, 6, 24 and 48 hours) and the secretion of ApoB is again measured to determine the kinetics for return to normal secretion. The reversibility is judged satisfactory if the secretion, 24 hours after removal of the products, has a value greater than or equal to 70% of that of the controls (blank cells without compound).

[4] = Test D: metabolisation/inactivation of the product in rodent liver microsomes; assay type: in vitro ADME; conditions: 0.5 mg/ml microsomes, 10 μM test product, 1 hour at 37° C., disappearance of parent by LC/MS/MS
Description: Metabolisation/Inactivation of the Product
The products are evaluated for their capacity to be inactivated rapidly in vitro. […] The incubation medium is prepared by mixing together the following constituents: NAD (1 mM), glucose 6 phosphate (5 mM), NADP (1 mM), glucose 6 phosphate dehydrogenase (1 IU/ml), bovine serum albumin (1 mg/ml), TRIS (10 mM pH=7.6), MgCl2 (5 mM).
A concentration of 0.5 mg/ml of microsomes (Biopredic) is placed in contact with 10 μM of test product. The mixture is incubated for 1 hour at 37° C. A fraction of the preparation is taken at the initial time, to which is added an equivalent volume of ethanol (quenching of the reaction by precipitation of the proteins). The same operation is repeated after 1 hour of incubation.
The samples obtained are centrifuged at 4000 rpm for 10 minutes, and the supernatant is analysed by LC/MS/MS. The percentage of disappearance of the parent product between T0 and T60 minutes is determined by calculating the areas of the chromatographic peaks.
(§1) Potential metabolites M1 and M2 (of the compounds 1 or 2, respectively) are identified, resynthesised and evaluated for their MTP-inhibiting activity.

[5] = molecular target: T2, MTP (Mesocricetus auratus, UniProt P55158); assay: Test D: MTP-inhibiting activity of the resynthesised metabolites; assay type: biochemical; conditions: MTP-inhibiting activity of metabolites M1, M2 of the compound
T2 sequence (P55158 19-895): T1 sequence (P55158 19-895)
Excerpt: Thus, Test A may also be preceded or followed, preferably followed, by one or more tests of inhibition of MTP and/or of inhibition of the secretion of VLDLs and/or of inhibition of the secretion of apoB, which are similar or even identical to the Tests B and/or C, respectively, defined above, but performed this time on the plasmatic metabolites of the candidate compounds. These tests on the metabolites will be referred to hereinbelow as Test D (metabolites/MTP inhibition test) and Test E (metabolites/apoB inhibition test).
as §1

[6] = tested on: secretion of VLDL (hepatic MTP); assay: Test F: inhibition of secretion of VLDL in rats (triton technique); assay type: in vivo, Male Wistar rats; conditions: 100 mg/kg orally, between 1 hour and 6 hours after treatment, relative to controls
Description: Inhibition of Secretion of VLDL in Rats:
The inhibition of hepatic MTP by compounds 1 and 2 was evaluated from their impact on the secretion of very low density lipoproteins (VLDLs). Male Wistar rats (220-280 g) receive a standard diet and water ad libitum. On the day of the experiment, the animals (n=7) are fasted and, one hour later, are treated with the compounds (100 mg/kg orally; excipient 0.5% methylcellulose). The secretion of VLDL is measured one hour after treatment, and for 5 hours, via the triton technique (WR 1339). When it is injected into the bloodstream, triton (400 mg/kg) prevents the catabolism of the VLDLs by inhibiting their lipolysis via lipoprotein lipase and by inhibiting their uptake by tissues. Measurement of the accumulation of triglycerides (TG) and of cholesterol, which is a component of VLDLs, thus makes is it possible to reveal the secretion of VLDL by the liver.
The effect of the product on the secretion of VLDL is thus evaluated between 1 hour and 6 hours after treatment at a dose of 100 mg/kg, i.e. between 0 and 5 hours after the intravenous injection of triton. Blood samples are taken at regular intervals under gaseous anaesthesia, to assay of the triglycerides and the cholesterol. […] The levels of inhibition relative to controls not treated with the compounds are determined, and the results are collated in Table V.

[7] = tested on: secretion of VLDL; assay: Test Avivo: duration of action of MTP inhibitors on the secretion of VLDL; assay type: in vivo, fatty fa/fa Zucker rats; conditions: between 6 and 8 hours after treatment
Description: Determination of the Duration of Action of MTP Inhibitors on the Secretion of VLDL
This test makes it possible to evaluate the kinetics of inhibition of MTP-inhibiting compounds on the secretion of VLDL in fatty fa/fa Zucker rats (10-12 weeks old), which is an animal model characterised by hypersecretion of VLDL. The intensity and duration of inhibition are measured via the triton technique described above over a period ranging up to 8 hours after administration of the products. Since the duration of action of a product depends both of the administered dose and on its intrinsic characteristics, it is determined at a dose of makes it possible to reach a maximum inhibition (Imax) of at least 50% over a significant time interval. The comparison of the profile of duration of action of two compounds that may have different potentials is thus performed at respective doses that allow similar Imax values to be obtained.

- IC50 [1]: 320 nM
- IC50 [2]: 18 nM
- Metabolisation (%/hour) [4]: 88 %/hour
- Activity of the metabolites [5]: M1, M2 inactive
SMILES: O=C(NC1CCN(Cc2cccnc2)CC1)c1ccccc1-c1ccc(C(F)(F)F)cc1 [Compound 1]
- Secretion of apoB 24 hours after removal of the products (% of the controls) [3]: >85%
- Inhibition of secretion of VLDL-TG [6]: −56%
- Inhibition of secretion of VLDL-cholesterol [6]: −45%
- residual inhibition of VLDL secretion [7]: absence of significant residual inhibition
